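Briefly, cells in 96-well plates were exposed to five compound concentrations for 48 h, and endpoints were estimated by linear interpolation. At the GI50, growth is halved.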 Activity calls are given as the source filed them. Cut-off read from the data, not from the text of the source: active = GI50 up to about 1.1 µM and inactive = higher.

Experiment in all cases: inhibition of tumour cell growth, NCI panel, 48 h
The subject of experiment [1] is CAKI-1.
For experiment [2], the system named is DU-145.
Experiment [3] deals with HCC 2998.
The test system of experiment [4] is HCT-15.
The test system of experiment [5] is HOP-62.
The test system of experiment [6] is KM12.
Experiment [7] deals with MDA-MB-435.
Experiment [8] concerns NCI-H23.
The subject of experiment [9] is OVCAR-3.
In experiment [10] the test system is OVCAR-4.
The test system of experiment [11] is SF-295.
The test system of experiment [12] is SK-MEL-2.
In experiment [13] the test system is SK-MEL-5.
Experiment [14] concerns SNB-75.
For experiment [15], the system named is SR.
In experiment [16] the test system is UACC-257.
For experiment [17], the system named is UACC-62.

For the molecule `CC1(C)OC2[C@@H](CO[C@@]3([C@@H](O)CCO)OC(C)(C)O[C@@H]23)O1` (some centres undefined), the GI50 was > 100 µM (inactive) in experiment [1]; > 100 µM (inactive) in experiment [2]; > 100 µM (inactive) in [3]; greater than 100 µM in experiment [4]; > 100 µM (inactive) in experiment [5]; > 100 µM (inactive) in [6]. In addition, the GI50 in experiment [7], in experiment [8], in [9], in experiment [10], in experiment [11] and in [12] was > 100 µM (inactive) throughout. Further, the GI50 in [13], in experiment [14], in experiment [15], in experiment [16] and in experiment [17] was > 100 µM (inactive) in each case.
Take `O=C(O)c1cc(/N=C/c2ccccc2O)cc(C(=O)O)c1`: the GI50 in experiment [1] was > 100 µM (inactive); in experiment [2], > 100 µM (inactive); in [3] it was > 100 µM (inactive); in experiment [4] it was greater than 100 µM; in experiment [5], > 100 µM (inactive); in [6], > 100 µM (inactive). The GI50 in experiment [7] was > 100 µM (inactive); in [8], > 100 µM (inactive); in experiment [9], 15.3 µM (inactive); in experiment [10] it was > 100 µM (inactive); in experiment [11], > 100 µM (inactive); in [12], > 100 µM (inactive). In addition, the GI50 in experiment [13], in [14], in experiment [15], in experiment [16] and in experiment [17] was > 100 µM (inactive) throughout.
With `c1ccc(COC[C@H]2C3OCC([C@H](OCc4ccccc4)[C@H]3OCc3ccccc3)N2Cc2ccccc2)cc1` (some centres undefined), the GI50 in experiment [1] is > 53.7 µM (inactive); in experiment [2], > 48.2 µM (inactive); in experiment [3], > 53 µM (inactive); in experiment [4] it was greater than 45.8 µM; in [5], > 55.2 µM (inactive); in [6], 25.3 µM (inactive). The GI50 in experiment [7] was > 55.2 µM (inactive); in experiment [8], 40.3 µM (inactive); in experiment [9], 17.4 µM (inactive); in experiment [10] it was 40 µM (inactive); in experiment [11], > 51.2 µM (inactive); in experiment [12], > 49.2 µM (inactive). The GI50 was 30.8 µM (inactive) in [13]; 21.1 µM (inactive) in [14]; 26.8 µM (inactive) in experiment [15]; 49 µM (inactive) in experiment [16]; 29.7 µM (inactive) in [17].
As for `COc1cc2c(cc1C)NC(=O)/C2=C\c1ccncc1`, the GI50 in [1] was 3.57 µM (inactive); in [2] it was 3.09 µM (inactive); in experiment [3], 12.3 µM (inactive); in experiment [4], 4.28 µM; in experiment [5], 6.97 µM (inactive); in experiment [6] it was 3.48 µM (inactive). For the same molecule, the GI50 was 4.14 µM (inactive) in experiment [7]; 3.43 µM (inactive) in [8]; 3.9 µM (inactive) in experiment [9]; > 100 µM (inactive) in experiment [10]; 4.99 µM (inactive) in experiment [11]; 2.97 µM (inactive) in [12]. For the same molecule, the GI50 in [13] is 2.73 µM (inactive); in experiment [14], 13.4 µM (inactive); in experiment [15], 2.61 µM (inactive); in [16], 5.19 µM (inactive); in experiment [17] it was 5.53 µM (inactive).
With `O=C(/C=C/c1ccccc1)CCN1CCCCC1`, the GI50 was 87.9 µM (inactive) in [1]; > 100 µM (inactive) in [2]; > 100 µM (inactive) in experiment [3]; 22.6 µM in experiment [4]; > 100 µM (inactive) in [5]; 28.5 µM (inactive) in experiment [6]. Also, the GI50 was 28.2 µM (inactive) in experiment [7]; 24.8 µM (inactive) in [8]; 31.2 µM (inactive) in experiment [9]; 53 µM (inactive) in experiment [10]; 99.5 µM (inactive) in experiment [11]; > 100 µM (inactive) in experiment [12]. Further, the GI50 in experiment [13] was 32.8 µM (inactive); in [14], 36.8 µM (inactive); in [15] it was 25.9 µM (inactive); in experiment [16] it was 37.4 µM (inactive); in experiment [17], 55.2 µM (inactive).
On to `NNC(=O)CCC(NS(=O)(=O)c1ccc(Cl)cc1)C(=O)NN` (centres undefined), for which the GI50 in [1] is > 100 µM (inactive); in experiment [2], > 100 µM (inactive); in experiment [3] it was > 100 µM (inactive); in experiment [4], greater than 100 µM; in experiment [5], > 100 µM (inactive); in [6], > 100 µM (inactive). The GI50 in experiment [7], in experiment [8], in experiment [9], in experiment [10], in [11] and in [12] was > 100 µM (inactive) in each case. For the same molecule, the GI50 in experiment [13], in experiment [14], in experiment [15], in [16] and in experiment [17] was > 100 µM (inactive) in each case.
As for `O=c1c2cnccc2cc2c3ccccc3ccn12`, the GI50 in experiment [1] was 9.89 µM (inactive); in [2] it was > 100 µM (inactive); in experiment [3] it was 53.7 µM (inactive); in experiment [4], 23.1 µM; in experiment [5], > 100 µM (inactive); in [6] it was 5.64 µM (inactive). In addition, the GI50 in experiment [7] is 97.3 µM (inactive); in experiment [8], 51.6 µM (inactive); in experiment [9] it was > 100 µM (inactive); in experiment [10] it was 50.4 µM (inactive); in experiment [11] it was > 100 µM (inactive); in [12], > 100 µM (inactive). For the same molecule, the GI50 is 46.1 µM (inactive) in experiment [13]; 61 µM (inactive) in experiment [14]; 2.03 µM (inactive) in experiment [15]; > 100 µM (inactive) in experiment [16]; 4.7 µM (inactive) in experiment [17].
As for `O=C(OCCN=c1c2ccccc2ccc2ccccc12)c1ccc([N+](=O)[O-])cc1`, the GI50 in experiment [1] is > 100 µM (inactive); in experiment [2], > 100 µM (inactive); in experiment [3], > 100 µM (inactive); in [4], greater than 100 µM; in [5], > 100 µM (inactive); in experiment [6], > 100 µM (inactive). The GI50 in experiment [7], in experiment [8], in experiment [9], in experiment [10], in experiment [11] and in experiment [12] was > 100 µM (inactive) in each case. The GI50 in experiment [13], in [14], in experiment [15], in experiment [16] and in experiment [17] was > 100 µM (inactive) each time.
In the case of `Cc1ccc(S(=O)(=O)N/N=C2\C3CC4CC(C3)C2C4)cc1` (centres undefined), the GI50 in [1] was > 100 µM (inactive); in experiment [2] it was > 10 µM (inactive); in experiment [3] it was > 100 µM (inactive); in experiment [4], greater than 100 µM; in experiment [5] it was > 100 µM (inactive); in [6], > 100 µM (inactive). The GI50 in experiment [7], in [8], in [9], in [10], in [11] and in [12] was > 100 µM (inactive) each time. Besides, the GI50 in [13], in experiment [14], in experiment [15], in experiment [16] and in experiment [17] was > 100 µM (inactive) in each case.
Take `O=C(Oc1cncc(Cl)c1)c1cc2ccccc2sc1=O`: the GI50 is > 100 µM (inactive) in [1]; 89.1 µM (inactive) in experiment [2]; 32.7 µM (inactive) in [3]; 38.5 µM in experiment [4]; 54.3 µM (inactive) in experiment [5]; 40.9 µM (inactive) in experiment [6]. Besides, the GI50 was 29.5 µM (inactive) in [7]; 58.7 µM (inactive) in experiment [8]; 60.5 µM (inactive) in [9]; 73.6 µM (inactive) in experiment [10]; 96.2 µM (inactive) in [11]; 24.7 µM (inactive) in [12]. For the same molecule, the GI50 in experiment [13] is 31.7 µM (inactive); in [14], 27.8 µM (inactive); in experiment [15], 19.6 µM (inactive); in experiment [16], > 100 µM (inactive); in experiment [17], 29 µM (inactive).
Turning to `CC12CCC3[C@@H](CC3(C)C)C(O)(CCC1=O)C2` (some centres undefined), the GI50 is > 100 µM (inactive) in [1]; > 100 µM (inactive) in [2]; > 100 µM (inactive) in [3]; greater than 100 µM in experiment [4]; > 100 µM (inactive) in experiment [5]; > 100 µM (inactive) in [6]. In addition, the GI50 in experiment [7], in experiment [8], in [9], in experiment [10], in experiment [11] and in experiment [12] was > 100 µM (inactive) in each case. Also, the GI50 in experiment [13], in experiment [14], in [15], in [16] and in experiment [17] was > 100 µM (inactive) throughout.
Take `CC(C)=CCOc1cc(NC(=S)c2ccsc2C)ccc1Cl`: the GI50 is > 100 µM (inactive) in [1]; 75.9 µM (inactive) in experiment [2]; 3.49 µM (inactive) in experiment [3]; greater than 100 µM in experiment [4]; 21.4 µM (inactive) in experiment [5]; > 100 µM (inactive) in experiment [6]. The GI50 in experiment [7] is > 100 µM (inactive); in experiment [8] it was 17.1 µM (inactive); in experiment [9], 14.1 µM (inactive); in experiment [10], 16.7 µM (inactive); in [11], 36 µM (inactive); in [12] it was 27.4 µM (inactive). In addition, the GI50 in [13] is 36.1 µM (inactive); in experiment [14] it was 14.1 µM (inactive); in experiment [15], 18.7 µM (inactive); in [16], 88.1 µM (inactive); in experiment [17], 15.6 µM (inactive).

(Values after ChEMBL document CHEMBL1201862, “PubChem BioAssay data set” (2004).)
